Earlier results, collected in patent publication US7491312B2, “Identifying therapeutic compounds based on their physical-chemical properties” (Edison Pharmaceuticals, Inc., priority 2002, dated 2009).

Target: amyloid-β fibril formation (Homo sapiens, UniProt P05067)
Details: compounds with an apomorphine core structure (FIG. 8)

amyloid-β fibril formation, sequence (P05067 672-711 limits assumed): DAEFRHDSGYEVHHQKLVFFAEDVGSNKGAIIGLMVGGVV

SMILES	reduction of fibril growth
COc1ccc2c(c1O)-c1cccc3c1C(C2)N(C)CC3 (centres unmarked) [apocodeine]	5%
CN1CCc2cccc3c2[C@H]1Cc1ccc(O)c(O)c1-3 [apomorphine]	99%
